Measurements reported in patent US20260315434A1, “USE OF GUAIACOL SESQUITERPENE LACTONE DERIVATIVES” (NANJING UNIVERSITY OF CHINESE MEDICINE, priority 2023, published 2026).

System: MDSCs
Assay: Inhibition of MDSC chemotaxis (Transwell, tumor-conditioned medium)
Type: cell-based, mouse
Conditions: Mus musculus, read-out: Suppression Rate (MDSC chemotaxis)
Method: Hepa1-6 mouse hepatocellular carcinoma cells were uniformly seeded into 6-well plates. After cells reached confluence, supernatant was aspirated, and 1-1.5 mL fresh medium was added to each well. Following 24 h culture, supernatant was collected, centrifuged at 1600 rpm for 5 min, aspirated, and filtered through a 0.22 μm membrane to obtain tumor-conditioned medium for subsequent use. […] Under sterile conditions, remove the tibia, cut both ends of the bone, and aspirate the bone marrow into a 1 mL syringe. Repeat flushing into a 15 mL centrifuge tube. Centrifuge at 1600 rpm for 5 min to collect bone marrow cells. Wash twice with 1×PBS. […] Count cells, adjust density to 1×10^6 cells/mL, and uniformly seed into 24-well plates at 300 μL per well. […] Centrifuge at 1600 rpm for 5 min, remove supernatant, resuspend cells in 300 μL fresh medium, and place into Transwell chambers. […] Co-culture for 24 h.

Q: Which inhibition at 1 µM does the source give for `C=C1C(=O)O[C@@H]2[C@H]3C(C)=CC[C@@]34O[C@@]4(C)CC[C@@H]12` [Arg, Arglabin, reference compound] here?
A: Its inhibition at 1 µM is 42.5%.

Q: And the inhibition at 10 µM?
A: Its inhibition at 10 µM is 73.2%.
